Results on one compound are retold here after patent publication US6124334A, “Hetero-aromatic ring substituted phenyloxazolidinone antimicrobials” (Pharmacia & Upjohn Company, priority 1998, dated 2000).

The test system of one assay is S. aureus, UC ®9213. The assay can be described thus: In vivo Murine Assay procedure, ED50 (survival of infected mice). Also noted: species or system Staphylococcus aureus; female mice. As to the method: Antimicrobial activity was tested in vivo using the Murine Assay procedure. Groups of female mice (six mice of 18-20 grams each) were injected intraperitoneally with bacteria which were thawed just prior to use and suspended in brain heart infusion with 4% brewers yeast UC9213 (Staphylococcus aureus) or brain heart infusion (Streptococcus species). Antibiotic treatment at six dose levels per drug was administered one hour and five hours after infection by either oral intubation or subcutaneous ("subcut.") routes. Survival was observed daily for six days. ED50 values based on mortality ratios were calculated using probit analysis. The subject compounds were compared against a well-known antimicrobial (Vancomycin) as a control.

A further assay relates to S. pneumoniae, UC ®9912. The assay can be described thus: In vitro MIC by agar dilution, S. pneumoniae. In kind it is cell-based. Particulars: Streptococcus pneumoniae, UC9912, read-out: In vitro Activities: Minimum Inhibitory Concentrations, S. pneumoniae, UC 9912. From the text: The oxazolidinone antibacterial agents of this invention have useful activity against a variety of organisms. The in vitro activity of compounds of this invention can be assessed by standard testing procedures such as the determination of minimum inhibitory concentration (MIC) by agar dilution as desribed in "Methods for Dilution Antimicrobial Susceptibility Tests for Bacteria That Grow Aerobically" (MFT) published January 1983 by the National Committee for Clinical Laboratory Standards, 771 East Lancaster Avenue, Villanova, Pa. 19084, USA. The activity of selected compounds of this invention against Staphylococcus aureus and Streptococcus pneumoniae are shown in Table 1.
On the technique in general: Agar dilution tests growth on a series of plates holding different concentrations.

Converted amounts (≈) assume the structure as drawn. “And” between values parts separate entries of the source, which are not always exact repeats. Equal entries are not always repeated.

In general, ED50 refers to the dose that gives a 50% effect, or the effect in half of the subjects. `CN[C@H](CC(C)C)C(=O)N[C@H]1C(=O)N[C@@H](CC(N)=O)C(=O)N[C@H]2C(=O)N[C@H]3C(=O)N[C@H](C(=O)N[C@H](C(=O)O)c4cc(O)cc(O)c4-c4cc3ccc4O)[C@H](O)c3ccc(c(Cl)c3)Oc3cc2cc(c3O[C@@H]2O[C@H](CO)[C@@H](O)[C@H](O)[C@H]2O[C@H]2C[C@](C)(N)[C@H](O)[C@H](C)O2)Oc2ccc(cc2Cl)[C@H]1O` [Vancomycin]: the ED50 in the assay with S. aureus, UC ®9213 (Staphylococcus aureus, UC9213, 144 h, read-out: Control, ED50) was 2.2 mg/kg. For the same compound, the “Control, ED50” value in the assay on S. aureus, UC ®9213 (vancomycin control run beside the Example of the same line, mice infected i.p. with S. aureus UC 9213, treatment 1 h and 5 h after infection, oral or subcutaneous, 8640 min) is 2.4 mg/kg and 2.0 mg/kg and 1.2 mg/kg. Also, the MIC with S. pneumoniae, UC ®9912 amounted to 0.5 µg/mL (≈ 0.345 µM).
